Assay results published in the NIST ThermoML archive (doi:10.1016/j.fluid.2011.12.029).
± gives the expanded uncertainty stated by the source.

Settings: Liquid, Vibrating tube method

CCCCCCCC[n+]1cccc(C)c1.F[B-](F)(F)F [N-octyl-3-methylpyridinium tetrafluoroborate]
Settings | mass density [kg/m3]
283.15 K, 100 kPa | 1106.25 ± 1.1
283.15 K, 5000 kPa | 1108.56 ± 1.1
283.15 K, 10000 kPa | 1110.95 ± 1.1
283.15 K, 15000 kPa | 1113.26 ± 1.1
283.15 K, 20000 kPa | 1115.53 ± 1.2
283.15 K, 25000 kPa | 1117.71 ± 1.2
283.15 K, 30000 kPa | 1119.8 ± 1.2
283.15 K, 35000 kPa | 1121.93 ± 1.3
283.15 K, 40000 kPa | 1123.9 ± 1.3
283.15 K, 45000 kPa | 1125.95 ± 1.3
283.15 K, 50000 kPa | 1127.8 ± 1.4
283.15 K, 55000 kPa | 1129.77 ± 1.4
283.15 K, 60000 kPa | 1131.58 ± 1.4
283.15 K, 65000 kPa | 1133.37 ± 1.5
288.15 K, 100 kPa | 1102.88 ± 1.1
288.15 K, 5000 kPa | 1105.22 ± 1.1
288.15 K, 10000 kPa | 1107.61 ± 1.1
288.15 K, 15000 kPa | 1109.98 ± 1.1
288.15 K, 20000 kPa | 1112.32 ± 1.2
288.15 K, 25000 kPa | 1114.52 ± 1.2
288.15 K, 30000 kPa | 1116.64 ± 1.2
288.15 K, 35000 kPa | 1118.71 ± 1.2
288.15 K, 40000 kPa | 1120.76 ± 1.3
288.15 K, 45000 kPa | 1122.74 ± 1.3
288.15 K, 50000 kPa | 1124.72 ± 1.3
288.15 K, 55000 kPa | 1126.63 ± 1.4
288.15 K, 60000 kPa | 1128.51 ± 1.4
288.15 K, 65000 kPa | 1130.3 ± 1.4
293.15 K, 100 kPa | 1099.53 ± 1.1
293.15 K, 5000 kPa | 1102.06 ± 1.1
293.15 K, 10000 kPa | 1104.51 ± 1.1
293.15 K, 15000 kPa | 1106.86 ± 1.1
293.15 K, 20000 kPa | 1109.18 ± 1.1
293.15 K, 25000 kPa | 1111.4 ± 1.2
293.15 K, 30000 kPa | 1113.56 ± 1.2
293.15 K, 35000 kPa | 1115.81 ± 1.2
293.15 K, 40000 kPa | 1117.82 ± 1.3
293.15 K, 45000 kPa | 1119.87 ± 1.3
293.15 K, 50000 kPa | 1121.88 ± 1.3
293.15 K, 55000 kPa | 1123.82 ± 1.4
293.15 K, 60000 kPa | 1125.67 ± 1.4
293.15 K, 65000 kPa | 1127.47 ± 1.4
298.15 K, 100 kPa | 1096.08 ± 1
298.15 K, 5000 kPa | 1098.54 ± 1.1
298.15 K, 10000 kPa | 1101.04 ± 1.1
298.15 K, 15000 kPa | 1103.47 ± 1.1
298.15 K, 20000 kPa | 1105.84 ± 1.1
298.15 K, 25000 kPa | 1108.07 ± 1.2
298.15 K, 30000 kPa | 1110.33 ± 1.2
298.15 K, 35000 kPa | 1112.49 ± 1.2
298.15 K, 40000 kPa | 1114.56 ± 1.3
298.15 K, 45000 kPa | 1116.65 ± 1.3
298.15 K, 50000 kPa | 1118.65 ± 1.3
298.15 K, 55000 kPa | 1120.63 ± 1.4
298.15 K, 60000 kPa | 1122.5 ± 1.4
298.15 K, 65000 kPa | 1124.52 ± 1.4
303.15 K, 100 kPa | 1092.83 ± 1
303.15 K, 5000 kPa | 1095.28 ± 1.1
303.15 K, 10000 kPa | 1097.84 ± 1.1
303.15 K, 15000 kPa | 1100.3 ± 1.1
303.15 K, 20000 kPa | 1102.65 ± 1.1
303.15 K, 25000 kPa | 1104.99 ± 1.2
303.15 K, 30000 kPa | 1107.32 ± 1.2
303.15 K, 35000 kPa | 1109.47 ± 1.2
303.15 K, 40000 kPa | 1111.6 ± 1.2
303.15 K, 45000 kPa | 1113.68 ± 1.3
303.15 K, 50000 kPa | 1115.8 ± 1.3
303.15 K, 55000 kPa | 1117.71 ± 1.3
303.15 K, 60000 kPa | 1119.7 ± 1.4
303.15 K, 65000 kPa | 1121.56 ± 1.4
308.15 K, 100 kPa | 1089.26 ± 1
308.15 K, 5000 kPa | 1091.74 ± 1.1
308.15 K, 10000 kPa | 1094.35 ± 1.1
308.15 K, 15000 kPa | 1096.91 ± 1.1
308.15 K, 20000 kPa | 1099.29 ± 1.1
308.15 K, 25000 kPa | 1101.65 ± 1.1
308.15 K, 30000 kPa | 1103.95 ± 1.2
308.15 K, 35000 kPa | 1106.18 ± 1.2
308.15 K, 40000 kPa | 1108.37 ± 1.2
308.15 K, 45000 kPa | 1110.56 ± 1.3
308.15 K, 50000 kPa | 1112.6 ± 1.3
308.15 K, 55000 kPa | 1114.63 ± 1.3
308.15 K, 60000 kPa | 1116.66 ± 1.4
308.15 K, 65000 kPa | 1118.6 ± 1.4
313.15 K, 100 kPa | 1085.88 ± 1
313.15 K, 5000 kPa | 1088.47 ± 1
313.15 K, 10000 kPa | 1091.09 ± 1.1
313.15 K, 15000 kPa | 1093.69 ± 1.1
313.15 K, 20000 kPa | 1096.09 ± 1.1
313.15 K, 25000 kPa | 1098.54 ± 1.1
313.15 K, 30000 kPa | 1100.84 ± 1.2
313.15 K, 35000 kPa | 1103.14 ± 1.2
313.15 K, 40000 kPa | 1105.37 ± 1.2
313.15 K, 45000 kPa | 1107.51 ± 1.2
313.15 K, 50000 kPa | 1109.66 ± 1.3
313.15 K, 55000 kPa | 1111.71 ± 1.3
313.15 K, 60000 kPa | 1113.7 ± 1.3
313.15 K, 65000 kPa | 1115.65 ± 1.4
318.15 K, 100 kPa | 1082.49 ± 1
318.15 K, 5000 kPa | 1085.16 ± 1
318.15 K, 10000 kPa | 1087.86 ± 1.1
318.15 K, 15000 kPa | 1090.4 ± 1.1
318.15 K, 20000 kPa | 1092.87 ± 1.1
318.15 K, 25000 kPa | 1095.34 ± 1.1
318.15 K, 30000 kPa | 1097.71 ± 1.2
318.15 K, 35000 kPa | 1100 ± 1.2
318.15 K, 40000 kPa | 1102.23 ± 1.2
318.15 K, 45000 kPa | 1104.4 ± 1.2
318.15 K, 50000 kPa | 1106.52 ± 1.3
318.15 K, 55000 kPa | 1108.63 ± 1.3
318.15 K, 60000 kPa | 1110.64 ± 1.3
318.15 K, 65000 kPa | 1112.69 ± 1.4
323.15 K, 100 kPa | 1079.26 ± 1
323.15 K, 5000 kPa | 1082.03 ± 1
323.15 K, 10000 kPa | 1084.69 ± 1.1
323.15 K, 15000 kPa | 1087.27 ± 1.1
323.15 K, 20000 kPa | 1089.69 ± 1.1
323.15 K, 25000 kPa | 1092.26 ± 1.1
323.15 K, 30000 kPa | 1094.65 ± 1.1
323.15 K, 35000 kPa | 1096.93 ± 1.2
323.15 K, 40000 kPa | 1099.23 ± 1.2
323.15 K, 45000 kPa | 1101.43 ± 1.2
323.15 K, 50000 kPa | 1103.63 ± 1.3
323.15 K, 55000 kPa | 1105.69 ± 1.3
323.15 K, 60000 kPa | 1107.78 ± 1.3
323.15 K, 65000 kPa | 1109.77 ± 1.4
328.15 K, 100 kPa | 1075.89 ± 0.99
328.15 K, 5000 kPa | 1078.67 ± 1
328.15 K, 10000 kPa | 1081.32 ± 1
328.15 K, 15000 kPa | 1083.91 ± 1.1
328.15 K, 20000 kPa | 1086.53 ± 1.1
328.15 K, 25000 kPa | 1089.05 ± 1.1
328.15 K, 30000 kPa | 1091.41 ± 1.1
328.15 K, 35000 kPa | 1093.82 ± 1.2
328.15 K, 40000 kPa | 1096.15 ± 1.2
328.15 K, 45000 kPa | 1098.38 ± 1.2
328.15 K, 50000 kPa | 1100.54 ± 1.2
328.15 K, 55000 kPa | 1102.61 ± 1.3
328.15 K, 60000 kPa | 1104.75 ± 1.3
328.15 K, 65000 kPa | 1106.82 ± 1.3
333.15 K, 100 kPa | 1072.64 ± 0.99
333.15 K, 5000 kPa | 1075.39 ± 1
333.15 K, 10000 kPa | 1078.24 ± 1
333.15 K, 15000 kPa | 1080.9 ± 1.1
333.15 K, 20000 kPa | 1083.46 ± 1.1
333.15 K, 25000 kPa | 1086.03 ± 1.1
333.15 K, 30000 kPa | 1088.48 ± 1.1
333.15 K, 35000 kPa | 1090.88 ± 1.1
333.15 K, 40000 kPa | 1093.31 ± 1.2
333.15 K, 45000 kPa | 1095.48 ± 1.2
333.15 K, 50000 kPa | 1097.71 ± 1.2
333.15 K, 55000 kPa | 1099.8 ± 1.3
333.15 K, 60000 kPa | 1101.97 ± 1.3
333.15 K, 65000 kPa | 1104.05 ± 1.3
